The values below come from patent US20260000674A1, “PHARMACEUTICAL COMPOSITION” (GEXVal Inc., priority 2022, published 2026).

In the assay the test system is dermatitis in psoriasis model mice. As to the kind of experiment: Auricular thickening in imiquimod-induced psoriasis model mice (Test Examples 1 to 7). It is filed as in vivo, male BALB/cCrSlc mice. The settings on record: oral, Day 0 to Day 3. The protocol:
15 mg/ear of imiquimod cream (product name: Beselna cream, manufactured by Mochida Pharmaceutical Co., Ltd.) was repeatedly applied to the right auricle of male BALB/cCrSlc mice (9 weeks old) at once a day for 4 days (Day 0 to Day 3) to prepare psoriasis model mice. One hour before the imiquimod application, Vehicle (0.5% methylcellulose (hereinafter abbreviated as 0.5% MC)), 3 mg/kg body weight MSP (5-HT4 receptor agonist), 3 mg/kg body weight RZT (5-HT1 receptor agonist), 3 mg/kg body weight TDS (5-HT1 receptor agonist), 3 mg/kg body weight LCS (5-HT2 receptor agonist), and 10 mg/kg body weight APR (positive control) were orally administered at 10 mL/kg body weight each (Day 0 to Day 3) (n=6 per administration group). The auricular thickness was measured before the imiquimod cream application (Day 0) and approximately 24 hours after the final administration of each evaluation substance (Day 1 to Day 4), and the difference in auricular thickness (auricular thickening) between Day 0 and Day 4 was evaluated as the degree of inflammation. Day 0 was defined as the day on which the imiquimod cream application was started.
Psoriasis model mice were prepared by the same method as in Test Example 1, and Vehicle (0.5% MC), 3 mg/kg body weight MSP, 30 mg/kg body weight MSP, and 10 mg/kg body weight APR (positive control) were orally administered at 10 mL/kg body weight each (Day 0 to Day 3) (n=6 per administration group). The difference in auricular thickness (auricular thickening) between Day 0 and Day 4 was evaluated as the degree of inflammation.
Psoriasis model mice were prepared by the same method as in Test Example 1, and Vehicle (0.5% MC), 3 mg/kg body weight MSP, 3 mg/kg body weight PCP, 10 mg/kg body weight PCP, 30 mg/kg body weight PCP, 3 mg/kg body weight VRG, 10 mg/kg body weight VRG, 30 mg/kg body weight VRG, and 10 mg/kg body weight APR (positive control) were orally administered at 10 mL/kg each (Day 0 to Day 3) (n=6 per administration group). The difference in auricular thickness (auricular thickening) between Day 0 and Day 4 was evaluated as the degree of inflammation.
Psoriasis model mice were prepared by the same method as in Test Example 1, and Vehicle (0.5% MC), 30 mg/kg body weight MSP, 30 mg/kg body weight CNP, 30 mg/kg body weight VRG, 30 mg/kg body weight CBP, and 10 mg/kg body weight APR (positive control) were orally administered at 10 mL/kg body weight each (Day 0 to Day 3) (n=6 per administration group). The difference in auricular thickness (auricular thickening) between Day 0 and Day 4 was evaluated as the degree of inflammation.
Psoriasis model mice were prepared by the same method as in Test Example 1, and Vehicle (0.5% MC), 30 mg/kg body weight PCP, 30 mg/kg body weight CSP, 30 mg/kg body weight TGR, and 10 mg/kg body weight APR (positive control) were orally administered at 10 mL/kg body weight each (Day 0 to Day 3) (n=6 per administration group). The difference in auricular thickness (auricular thickening) between Day 0 and Day 4 was evaluated as the degree of inflammation.
Psoriasis model mice were prepared by the same method as in Test Example 1, and Vehicle (0.5% MC), 30 mg/kg body weight FCT, 30 mg/kg body weight UMP, 30 mg/kg body weight RLP, 30 mg/kg body weight RZP, 30 mg/kg body weight MSP, and 10 mg/kg body weight APR (positive control) were orally administered at 10 mL/kg body weight each (Day 0 to Day 3) (n=6 per administration group). The difference in auricular thickness (auricular thickening) between Day 0 and Day 4 was evaluated as the degree of inflammation.
Psoriasis model mice were prepared by the same method as in Test Example 1, and Vehicle (0.5% MC), 30 mg/kg body weight NRP, 30 mg/kg body weight CJ-033466, 30 mg/kg body weight RVP, 30 mg/kg body weight E-3620, 30 mg/kg body weight MSP, and 10 mg/kg body weight APR (positive control) were orally administered at 10 mL/kg body weight each (Day 0 to Day 3) (n=6 per administration group). […]

Where [1] appears, read: Test Example 4, FIG. 4, 30 mg/kg body weight.
The mark [2] stands for this setting: Test Example 7, FIG. 7, 30 mg/kg body weight.
Setting [3] is: Test Example 5, FIG. 5, 30 mg/kg body weight.
[4] abbreviates: Test Example 6, FIG. 6, 30 mg/kg body weight.
Where [5] appears, read: Test Example 1, FIG. 1, 3 mg/kg body weight.
The mark [6] stands for this setting: Test Example 3, FIG. 3, at all doses (3, 10 and 30 mg/kg body weight).

Where a name gives a salt, the structure may show the parent alone.

In the case of `CCOc1cc([C@@H](CS(C)(=O)=O)N2C(=O)c3cccc(NC(C)=O)c3C2=O)ccc1OC` [APR, Apremilast], the “auricular thickening (difference in auricular thickness between Day 0 and Day 4) compared with 0.5% MC” value was “significantly suppressed the auricular thickening” (Test Example 1, FIG. 1, 10 mg/kg body weight); “significantly suppressed the auricular thickening” (Test Example 3, FIG. 3, 10 mg/kg body weight); “significantly suppressed the auricular thickening” (Test Example 4, FIG. 4, 10 mg/kg body weight); “significantly suppressed the auricular thickening” (Test Example 5, FIG. 5, 10 mg/kg body weight); “significantly suppressed the auricular thickening” (Test Example 6, FIG. 6, 10 mg/kg body weight); “significantly suppressed the auricular thickening” (Test Example 7, FIG. 7, 10 mg/kg body weight). As to `COc1cc(N)c(Cl)cc1C(=O)NC1CCN(Cc2ccccc2)CC1` [CBP, Clebopride malate], the “auricular thickening (difference in auricular thickness between Day 0 and Day 4) compared with 0.5% MC” value under setting [1] was “significantly suppressed the auricular thickening”. In the case of `Cc1cn2c(N)c(Cl)cc(C(=O)NCC3CCN(CC(C)C)CC3)c2n1` [CJ-033466], the “auricular thickening (difference in auricular thickness between Day 0 and Day 4) compared with 0.5% MC” value under setting [2] is given as “significantly suppressed the auricular thickening”. With `COc1cc(N)c(Cl)cc1C(=O)NC1CCN(CCCOc2ccc(F)cc2)CC1OC` (stereo not shown) [CSP, Cisapride], under setting [3], the “auricular thickening (difference in auricular thickness between Day 0 and Day 4) compared with 0.5% MC” value is “significantly suppressed the auricular thickening”.

As to `CC#C[C@H](C)Oc1cc(N)c(Cl)cc1C(=O)NC1C[C@H]2CC[C@@H](C1)N2C.Cl` (stereo partly shown) [E-3620], the “auricular thickening (difference in auricular thickness between Day 0 and Day 4) compared with 0.5% MC” value under setting [2] is listed as “significantly suppressed the auricular thickening”. As to `COC(=O)N1CCC(CN2CCC(CNC(=O)c3cccc4nc(C(C)C)[nH]c34)CC2)CC1` [FCT, Felcisetrag], the “auricular thickening (difference in auricular thickness between Day 0 and Day 4) compared with 0.5% MC” value under setting [4] is “significantly suppressed the auricular thickening”. Take `C[C@H]1CNCCc2ccc(Cl)cc21` [LCS, Lorcaserin hydrochloride]: the “auricular thickening (difference in auricular thickness between Day 0 and Day 4) compared with 0.5% MC” value under setting [5] was “none of 3 mg/kg body weight RZT (5-HT1 receptor agonist) (comparative example), 3 mg/kg body weight TDS (5-HT1 receptor agonist) (comparative example), and 3 mg/kg body weight LCS (5-HT2 receptor agonist) (comparative example) suppressed the auricular thickening”. Take `COc1cc(N)c(Cl)cc1C(=O)N[C@@H]1CCN(CCCCCC(=O)O[C@H]2CN3CCC2CC3)C[C@@H]1OC` [NRP, Naronapride hydrochloride]: under setting [2], the “auricular thickening (difference in auricular thickness between Day 0 and Day 4) compared with 0.5% MC” value is “significantly suppressed the auricular thickening”. For `COc1cc(N)c(Cl)cc1C(=O)NCC1CCN(CC[C@H](OC(N)=O)c2ccc(F)cc2)CC1.Cl` [RLP, Relenopride hydrochloride], the “auricular thickening (difference in auricular thickness between Day 0 and Day 4) compared with 0.5% MC” value under setting [4] is on record as “significantly suppressed the auricular thickening”. On to `COCCCN1CC[C@@H](CNC(=O)c2cc(Cl)c(N)c3c2OC(C)(C)C3)[C@H](O)C1` [RVP, Revexepride], for which the “auricular thickening (difference in auricular thickness between Day 0 and Day 4) compared with 0.5% MC” value under setting [2] was “significantly suppressed the auricular thickening”. As to `CN(C)CCc1c[nH]c2ccc(Cn3cncn3)cc12` [RZT, Rizatriptan benzoate], the “auricular thickening (difference in auricular thickness between Day 0 and Day 4) compared with 0.5% MC” value under setting [5] was “none of 3 mg/kg body weight RZT (5-HT1 receptor agonist) (comparative example), 3 mg/kg body weight TDS (5-HT1 receptor agonist) (comparative example), and 3 mg/kg body weight LCS (5-HT2 receptor agonist) (comparative example) suppressed the auricular thickening”. Regarding `[H]/N=C(/NCCCCC)N/N=C/c1c[nH]c2ccc(OC)cc12` [TGR, Tegaserod maleate], under setting [3], the “auricular thickening (difference in auricular thickness between Day 0 and Day 4) compared with 0.5% MC” value is “significantly suppressed the auricular thickening”. `COCCCN1CCC(c2nnc(-c3nn(C(C)C)c4ccccc34)o2)CC1` [UMP, Usmarapride]: under setting [4], the “auricular thickening (difference in auricular thickness between Day 0 and Day 4) compared with 0.5% MC” value was “significantly suppressed the auricular thickening”. With `CC(C)n1c(=O)c(C(=O)N[C@H]2C[C@H]3CC[C@@H](C2)N3C[C@@H](O)CN(C)S(C)(=O)=O)cc2ccccc21` [VRG, Velusetrag], the “auricular thickening (difference in auricular thickness between Day 0 and Day 4) compared with 0.5% MC” value under setting [6] is reported as “significantly suppressed the auricular thickening at all doses”; the “auricular thickening (difference in auricular thickness between Day 0 and Day 4) compared with 0.5% MC” value under setting [1] is “significantly suppressed the auricular thickening”. Cinitapride tartrate [CNP]: under setting [1], the “auricular thickening (difference in auricular thickness between Day 0 and Day 4) compared with 0.5% MC” value is recorded as “significantly suppressed the auricular thickening”. In the case of Mosapride citrate dihydrate [MSP], the “auricular thickening (difference in auricular thickness between Day 0 and Day 4) compared with 0.5% MC” value runs as follows: under setting [5], “significantly suppressed the auricular thickening”; (Test Example 2, FIG. 2, 3 mg/kg body weight) “significantly suppressed the auricular thickening in a dose-dependent manner”; (Test Example 2, FIG. 2, 30 mg/kg body weight) “significantly suppressed the auricular thickening in a dose-dependent manner”; (Test Example 3, FIG. 3, 3 mg/kg body weight) “significantly suppressed the auricular thickening”; under setting [1], “significantly suppressed the auricular thickening”; under setting [4], “significantly suppressed the auricular thickening”. The “auricular thickening (difference in auricular thickness between Day 0 and Day 4) compared with 0.5% MC” value under setting [2] is “significantly suppressed the auricular thickening”. As for Prucalopride succinate [PCP], the “auricular thickening (difference in auricular thickness between Day 0 and Day 4) compared with 0.5% MC” value under setting [6] was “significantly suppressed the auricular thickening at all doses”; the “auricular thickening (difference in auricular thickness between Day 0 and Day 4) compared with 0.5% MC” value under setting [3] is given as “significantly suppressed the auricular thickening”. As for Tandospirone citrate [TDS], under setting [5], the “auricular thickening (difference in auricular thickness between Day 0 and Day 4) compared with 0.5% MC” value was “none of 3 mg/kg body weight RZT (5-HT1 receptor agonist) (comparative example), 3 mg/kg body weight TDS (5-HT1 receptor agonist) (comparative example), and 3 mg/kg body weight LCS (5-HT2 receptor agonist) (comparative example) suppressed the auricular thickening”.
